Results: patent US4639450A, “Polyprenylcarboxylic acid morpholides and pharmaceutical compositions” (Eisai Co., Ltd., priority 1979, dated 1987)

How the values were obtained:
[1] = test system: liver dysfunction (hepatitis) induced by D-galactosamine; assay: Experiment I: effect on the liver dysfunction (hepatitis) induced by D-galactosamine, test compound administered into the abdominal cavity; assay type: in vivo, Rats of the SD series; settings: D-galactosamine hydrochloride 250 mg/Kg
Protocol: The effect on the liver dysfunction (hepatitis) induced by D-galactosamine by administration into the abdominal cavity was examined.
(§1) Rats of the SD series having a body weight of about 250 g were used as test animals. D-Galactosamine hydrochloride (250 mg/Kg each time) and the test compound (50 mg/Kg each time) were administered into the abdominal cavity according to the schedule described below. After termination of the experiment, blood was collected from the test animals, and the GOT value, GPT value and alkali phosphatase value, which are indicators of the degree of the liver dysfunction, were measured.
(§2) The test compound was suspended in a 5% aqueous solution of gum arabic and was administered in the form of the suspension. D-Galactosamine hydrochloride was dissolved in distilled water, the pH value of the solution was adjusted to 7 by potassium hydroxide and the resulting solution was administered. The test compound was administered to a group consisting of 9 rats, and in place of the test compound, a 5% aqueous solution of gum arabic free of the test compound was administered to a control group consisting of 14 rats. Neither the test compound nor D-galactosamine hydrochloride was administered to a normal group consisting of 9 rats.
(§3) Administration Schedule: [formula]

[2] = test system: liver dysfunction (hepatitis) induced by D-galactosamine; assay: Experiment II: effect on the liver dysfunction (hepatitis) induced by D-galactosamine, oral administration; assay type: in vivo, Rats of the SD series; settings: Tables 3 and 4, 400 mg/Kg each time, D-galactosamine hydrochloride 200 mg/Kg hypodermically; for GPT Value: normal 34.8 ± 1.9, control 395.7 ± 49.3; for Alkali Phosphatase Value: normal 49.3 ± 4.4, control 67.4 ± 2.9; for GOT Value: normal 129.4 ± 12.6, control 573.7 ± 59.1
Protocol: as §1, §2
The effect on the liver dysfunction (hepatitis) induced by D-galactosamine by oral administration was examined.
D-galactosamine hydrochloride (200 mg/Kg each time) was hypodermically administered, and the test compound (400 mg/Kg each time) was orally administered. The test compound-administered group consisted of 9 rats, the control group consisted of 14 rats, and the normal group consisted of 8 rats. The administration schedule was as follows.
as §3
Other test conditions were the same as in Experiment I.

[3] = test system: rats of the Wistar series; settings: rat, in vivo, po, 4000 mg/kg
Protocol: The compounds C, D, I and M were separately suspended in 5% aqueous solutions of gum arabic and the test composition were orally administered to rats of the Wistar series at a dose of 4000 mg/Kg.

[4] = Table 1, 50 mg/Kg each time, normal 32.3 ± 3.3, control 94.2 ± 6.9
[5] = Table 1, 50 mg/Kg each time, normal 33.1 ± 2.3, control 509 ± 94
[6] = Table 1, 50 mg/Kg each time, normal 127.0 ± 6.1, control 751 ± 130
[7] = Table 2, 50 mg/Kg each time, normal 39.0 ± 2.4, control 992.3 ± 121.2
[8] = Table 2, 50 mg/Kg each time, normal 48.9 ± 4.7, control 125.7 ± 4.9
[9] = Table 2, 50 mg/Kg each time, normal 129.9 ± 10.1, control 1081.8 ± 90.3

## CC(C)CCCC(C)CCCC(C)CC(=O)N1CCOCC1 (stereo not shown) [compound A, 4-(3,7,11-trimethyldodecanoyl)morpholine]
[1]; [4]
  Alkali Phosphatase Value: 31.9 ± 1.8 KA unit
[1]; [5]
  GPT Value: 46.8 ± 11 carmen unit
[1]; [6]
  GOT Value: 257.4 ± 31 carmen unit
[2]
  GPT Value: 62.1 ± 10.7 carmen unit
  Alkali Phosphatase Value: 64.1 ± 4.6 KA unit
  GOT Value: 193.0 ± 18.5 carmen unit

## CC(C)=CCC/C(C)=C/CCC(C)CC(=O)N1CCOCC1 (stereo not shown) [compound B, 4-[(E)-3,7,11-trimethyl-6,10-dodecadienoyl]morpholine]
[1]; [4]
  Alkali Phosphatase Value: 40.2 ± 2.4 KA unit
[1]; [5]
  GPT Value: 50.4 ± 16 carmen unit
[1]; [6]
  GOT Value: 316 ± 27 carmen unit
[2]
  GPT Value: 67.4 ± 7.3 carmen unit
  Alkali Phosphatase Value: 62.9 ± 4.9 KA unit
  GOT Value: 233.3 ± 22.2 carmen unit

## CC(C)CCCC(C)CCCC(C)CCCC(C)CC(=O)N1CCOCC1 (stereo not shown) [compound C, 4-(3,7,11,15-tetramethylhexadecanoyl)morpholine]
[3]
  death of rats: None of the rats died
[1]; [4]
  Alkali Phosphatase Value: 23.5 ± 1.8 KA unit
[1]; [5]
  GPT Value: 40 ± 13 carmen unit
[1]; [6]
  GOT Value: 352 ± 34 carmen unit
[2]
  GPT Value: 122.0 ± 16.1 carmen unit
  Alkali Phosphatase Value: 46.7 ± 4.0 KA unit
  GOT Value: 231.1 ± 26.4 carmen unit

## CC(C)=CCC/C(C)=C/CC/C(C)=C/CCC(C)CC(=O)N1CCOCC1 (stereo not shown) [compound D, 4-[(E,E)-3,7,11,15-tetramethyl-6,10,14-hexadecatrienoyl]morpholine]
[3]
  death of rats: None of the rats died
[1]; [4]
  Alkali Phosphatase Value: 28.5 ± 2.0 KA unit
[1]; [5]
  GPT Value: 94 ± 39 carmen unit
[1]; [6]
  GOT Value: 430 ± 58 carmen unit
[2]
  GPT Value: 58.8 ± 5.5 carmen unit
  Alkali Phosphatase Value: 53.1 ± 5.6 KA unit
  GOT Value: 84.8 ± 8.9 carmen unit

## CC(C)=CCC/C(C)=C/CC/C(C)=C/CCC(C)CC(N)=O (stereo not shown) [compound E, (E,E)-3,7,11,15-tetramethyl-6,10,14-hexadecatrienamide]
[1]; [4]
  Alkali Phosphatase Value: 32.1 ± 2.6 KA unit
[1]; [5]
  GPT Value: 64 ± 15 carmen unit
[1]; [6]
  GOT Value: 425 ± 24 carmen unit

## CC(C)=CCC/C(C)=C/CC/C(C)=C/CCC(C)CC(=O)N(C)C (stereo not shown) [compound F, (E,E)-N,N-dimethyl-3,7,11,15-tetramethyl-6,10,14-hexadecatrienamide]
[1]; [4]
  Alkali Phosphatase Value: 28.0 ± 2.4 KA unit
[1]; [5]
  GPT Value: 90 ± 44 carmen unit
[1]; [6]
  GOT Value: 400 ± 75 carmen unit

## CC(C)=CCC/C(C)=C/CC/C(C)=C/CCC(C)CC(=O)N1CCN(CCO)CC1 (stereo not shown) [compound G, 1-[(E,E)-3,7,11,15-tetramethyl-6,10,14-hexadecatrienoyl]-4-(2-hydroxyethyl)piperazine]
[1]; [4]
  Alkali Phosphatase Value: 29.6 ± 2.3 KA unit
[1]; [5]
  GPT Value: 84 ± 17 carmen unit
[1]; [6]
  GOT Value: 414 ± 49 carmen unit

## CC(=CC(=O)N1CCOCC1)CCCC(C)CCCC(C)C (stereo not shown) [compound H, 4-(3,7,11-trimethyl-2-dodecaenoyl)morpholine]
[1]; [7]
  GPT Value: 511.3 ± 173.7 carmen unit
[1]; [8]
  Alkali Phosphatase Value: 49.0 ± 1.9 KA unit
[1]; [9]
  GOT Value: 732.1 ± 147.3 carmen unit

## CC(=CC(=O)N1CCOCC1)CCCC(C)CCCC(C)CCCC(C)C (stereo not shown) [compound I, 4-(3,7,11,15-tetramethyl-2-hexadecaenoyl)morpholine]
[3]
  death of rats: None of the rats died
[1]; [7]
  GPT Value: 135.3 ± 46.4 carmen unit
[1]; [8]
  Alkali Phosphatase Value: 35.4 ± 5.2 KA unit
[1]; [9]
  GOT Value: 659.3 ± 72.5 carmen unit
[2]
  GPT Value: 154.9 ± 21.5 carmen unit
  Alkali Phosphatase Value: 44.31 ± 3.1 KA unit
  GOT Value: 284.9 ± 36.4 carmen unit

## CC(C)=CCCC(C)=CCCC(C)=CCCC(C)=CC(N)=O [compound J, 3,7,11,15-tetramethyl-2,6,10,14-hexadecatetraenamide]
[1]; [7]
  GPT Value: 314.5 ± 65.9 carmen unit
[1]; [8]
  Alkali Phosphatase Value: 49.9 ± 3.0 KA unit
[1]; [9]
  GOT Value: 617.0 ± 50.5 carmen unit

## CC(C)=CCCC(C)=CCCC(C)=CCCC(C)=CC(=O)N(C)C [compound K, N,N-dimethyl-3,7,11,15-tetramethyl-2,6,10,14-hexadecatetraenamide]
[1]; [7]
  GPT Value: 193.8 ± 38.1 carmen unit
[1]; [8]
  Alkali Phosphatase Value: 45.2 ± 1.8 KA unit
[1]; [9]
  GOT Value: 586.0 ± 56.5 carmen unit

## CC(C)=CCCC(C)=CCCC(C)=CCCC(C)=CC(=O)N1CCN(CCO)CC1 [compound L, 1-(3,7,11,15-tetramethyl-2,6,10,14-hexadecatetraenoyl)-4-(2-hydroxyethyl)piperazine]
[1]; [7]
  GPT Value: 138.1 ± 16.9 carmen unit
[1]; [8]
  Alkali Phosphatase Value: 42.8 ± 1.8 KA unit
[1]; [9]
  GOT Value: 451.7 ± 37.9 carmen unit

## CC(C)=CCCC(C)=CCCC(C)=CCCC(C)=CC(=O)N1CCOCC1 [compound M, 4-(3,7,11,15-tetramethyl-2,6,10,14-hexadecatetraenoyl)morpholine]
[3]
  death of rats: None of the rats died
[2]
  GPT Value: 58.9 ± 7.3 carmen unit
  Alkali Phosphatase Value: 59.4 ± 4.9 KA unit
  GOT Value: 178.4 ± 10.3 carmen unit
